Reference: patent publication US20260234163A1, “NOVEL COMPOUNDS AND USES THEREOF” (ACELINK THERAPEUTICS, INC., priority 2023, published 2026)
Like-named read-outs stand apart in the source and are kept apart here.

Assays:
[1] = rcm bond, 21-membered ring, Grubbs II, DCM, 19.0 h
[2] = system: Nrf2; test: Nrf2 Cellular Assay (pGL4.37[luc2P/ARE/Hygro] luciferase reporter in HepG2 cells); format: cell-based; settings: ARE luciferase, 6 hours compound treatment
Protocol: Example 2.2 Nrf2 Cellular Assay
• 1. pGL4.37[luc2P/ARE/Hygro] vector was diluted to 25 ng/μL in Opti-MEM. • 2. Lipofectamine 3000 was added to a 2:1 lipid:DNA. The mixture was mixed by pipetting and incubate at room temperature for 15 minutes. • 3. HepG2 cells were cultured in complete medium (DMEM+10% FBS). • 4. Trypsin was added to the cells, which were filtered via a cell strainer to remove cell cluster, the cells were then quantified and diluted to 2×10^5 cells/ml in complete medium. • 5. The cells and plasmid were mixed, seeded to 384-well plate 50 μL per well (50 ng DNA/well) and incubated for 24 hours in a 37° C., 5% CO2 incubator.
• 1. Medium was removed from cells and replaced with 36 μL of DMEM+10% FBS per well. • 2. Incubated overnight in a 37° C., 5% CO2 incubator.
• 1. Test compound was serially diluted tin DMSO, and further diluted with DMEM (contains 10% FBS) to 10× final concentration. • 2. 4 μL of the 10× compound was added to each well, the plate was shaken for 10 sec on a plate shaker and incubated for 6 hours in a 37° C., 5% CO2 incubator.
• 1. Plates were removed from the 37° C., 5% CO2 incubator and allowed to cool to room temperature for approximately 15 minutes. • 2. 40 μL of the Glo Luciferase Assay System detection reagents were added, and the plate was shaken for 3 min and luminescence was measured.

[3] = target: T1, Keap1-Nrf2 (Homo sapiens, UniProt Q14145); test: Keap1-Nrf2 Binding Inhibitory Activity Assay (fluorescence polarization, Keap1_FL + FITC-Nrf2 peptide); settings: Keap1-FL, 60 min room temperature
T1 construct: purchased Sino Biological 11981-H20B
Protocol: Example 2.1 Keap1-Nrf2 Binding Inhibitory Activity Assay
• PerkinElmer EnVision 2105 Multilabel Reader • PerkinElmer FITC FP dual emission Label 2100-8060 • LABCYTE Echo 650 • Corning 384-well microplate #4514 • Keap1_FL, Sino Biological, catalog 11981-H20B • FITC-Nrf2 peptide, GL Biochem, Lot No: p210427-XQ892761
• a) Reference titration • 1. Keap1-Nrf2 Assay Buffer was prepared: 10 mM Tris-HCl pH 7.4, 150 mM NaCl, 50 mM EDTA, 0.05% Tween20, 0.1 mg/ml BSA (freshly add before use). • 2. 2.04× Tracer working solution was prepared: 2.04 nM FITC-Nrf2 peptide in Assay Buffer from 1 μM DMSO stock. • 3. 2× Protein working solution was prepared: 25 nM Keap1-FL in Assay Buffer. • 4. 100× compound working solutions with DMSO were prepared. Starting from 100 μM, serial 3-fold dilutions (10 points) were made by the Echo on the 384-well LDV microplate, then 200 nL of compounds, in duplicated wells, were transferred to a Corning 4514 plate. • 5. 9.8 μL per well of the Tracer working solution was added into the Corning 4514 plate. • 6. 10 μL per well of the Protein working solution was added into the Corning 4514 plate, except for the first two columns where Dilution Buffer were added to serve as “positive control”. • 7. The plate was incubated at room temperature for 60 min. • b) Read data on an EnVision with the following setting: Excitation Light (%): 84; Measurement Height: 9.4; G-Factor: 1; Detector Gain 1:220; Detector Gain 2: 220; Flash Number: 50.
All the Test Compounds were considered as having Keap1-Nrf2 binding inhibitory activity.

Row | EC50 ([2]; Homo sapiens, HepG2, 6 h) | IC50 [3] | EC50 [2] | SMILES | ring closure, isolated yield ([1]; from C=CCOc1ccc(S(=O)(=O)N2CCc3ccc(C(CC(=O)OCC)c4ccc5c(nnn5C/C=C/C)c4C)cc3C2)cc1, 40.0 mM, 25.0 °C) | ring closure, isolated yield ([1]; from C=CCCCn1nnc2c(Cl)c(C(CC(=O)OCc3ccccc3)c3ccc4c(c3)CN(C(=O)N3CCC(C=C)CC3)CC4)ccc21, 53.3 mM)
1 | > 30 µM | 1000 to 10000 nM | – | Cc1ccc2cc1CN(C)C(=O)c1ccc(cc1)COCCCn1nnc3c(C)c(ccc31)C2CC(=O)O (single isomer, unassigned) [Compound 17, 2-(1^4,3^4,5-trimethyl-6-oxo-1^1H-9-oxa-5-aza-1(5,1)-benzo[d][1,2,3]triazola-3(1,3), 7(1,4)-dibenzenacyclododecaphane-2-yl)acetic acid] | – | –
2 | 10 to 30 µM | ≤ 100 nM | – | O=C(O)CC1c2ccc3c(c2)CN(CC3)C(=O)N2CCC(CCCCCn3nnc4cc1cnc43)CC2 (single isomer, unassigned) [Compound 53] | – | –
3 | – | ≤ 100 nM | ≤ 10 µM | O=C(O)CC1c2ccc3c(c2)CN(CC3)C(=O)N2CCC(CCCCCn3nnc4cc1cnc43)CC2 (single isomer, unassigned) [Compound 54] | – | –
4 | ≤ 10 µM | ≤ 100 nM | – | Cc1c2ccc3c1nnn3CCCCCC1CCN(CC1)C(=O)N1CCc3ccc(cc3C1)C2CC(=O)O (centres unmarked) [Compound 14, 2-(1^4-methyl-4-oxo-3^1,3^2,3^3,3^4-tetrahydro-1^1H-3(7,2)-isoquinolina-1(5,1)-benzo[d][1,2,3]triazola-5(1,4)-piperidinacyclodecaphane-2-yl)acetic acid] | – | –
5 | ≤ 10 µM | ≤ 100 nM | – | O=C(O)CC1c2ccc3c(c2)CN(CC3)C(=O)N2CCC(CCCCCn3nnc4c(Cl)c1ccc43)CC2 (centres unmarked) [Compound 30, 2-(1^4-chloro-4-oxo-3^1,3^2,3^3,3^4-tetrahydro-1^1H-3(7,2)-isoquinolina-1(5,1)-benzo[d][1,2,3]triazola-5(1,4)-piperidinacyclodecaphane-2-yl)acetic acid] | – | –
6 | ≤ 10 µM | ≤ 100 nM | – | Cc1c2ccc3c1nnn3CCCCC1CCC(CC1)C(=O)N1CCc3ccc(cc3C1)C2CC(=O)O (centres unmarked) [Compound 34] | – | –
7 | ≤ 10 µM | ≤ 100 nM | – | Cc1c2ccc3c1nnn3CCCCCC1CCC(CC1)C(=O)N1CCc3ccc(cc3C1)C2CC(=O)O (centres unmarked) [Compound 35] | – | –
8 | ≤ 10 µM | 100 to 1000 nM | – | Cc1c2ccc3c1nnn3CCCCCC1CCC(CC1)C(=O)N(C)Cc1cccc(c1)C2CC(=O)O (centres unmarked) [Compound 37] | – | –
9 | 10 to 30 µM | ≤ 100 nM | – | Cc1c2ccc3c1nnn3CCCCCCCCN(C)C(=O)N1CCc3ccc(cc3C1)C2CC(=O)O (centres unmarked) [Compound 40] | – | –
10 | ≤ 10 µM | ≤ 100 nM | – | O=C(O)CC1c2ccc3c(c2)CN(CC3)C(=O)C2CCC(CCCCCn3nnc4cc1cnc43)CC2 (centres unmarked) [Compound 55, 2-(4-oxo-31,32,33,34-tetrahydro-13H-3(7,2)-isoquinolina-1(6,3)-[1,2,3]triazolo[4,5-b]pyridina-5(1,4)-cyclohexanacyclodecaphane-2-yl)acetic acid] | – | –
11 | 10 to 30 µM | ≤ 100 nM | – | O=C(O)CC1c2ccc3c(c2)CN(CC3)C(=O)C2CCC(CCCCn3nnc4cc1cnc43)CC2 (centres unmarked) [Compound 56, 2-(4-oxo-31,32,33,34-tetrahydro-13H-3(7,2)-isoquinolina-1(6,3)-[1,2,3]triazolo[4,5-b]pyridina-5(1,4)-cyclohexanacyclononaphane-2-yl)acetic acid] | – | –

More lines, now with the values behind:

Row | SMILES | EC50 ([2]; Homo sapiens, HepG2, 6 h) | IC50 [3] | EC50 [2] | ring closure, isolated yield ([1]; from C=CCOc1ccc(S(=O)(=O)N2CCc3ccc(C(CC(=O)OCC)c4ccc5c(nnn5C/C=C/C)c4C)cc3C2)cc1, 40.0 mM, 25.0 °C) | ring closure, isolated yield ([1]; from C=CCCCn1nnc2c(Cl)c(C(CC(=O)OCc3ccccc3)c3ccc4c(c3)CN(C(=O)N3CCC(C=C)CC3)CC4)ccc21, 53.3 mM)
12 | CCOC(=O)CC1c2ccc3c(c2)CN(CC3)S(=O)(=O)c2ccc(cc2)OCC=CCn2nnc3c(C)c1ccc32 (centres unmarked) | – | – | – | 12.9% | –
13 | O=C(CC1c2ccc3c(c2)CN(CC3)C(=O)N2CCC(C=CCCCn3nnc4c(Cl)c1ccc43)CC2)OCc1ccccc1 (centres unmarked) | – | – | – | – | 13.3%
14 | Cc1c2ccc3c1nnn3CCOCCOc1ccc(cc1)S(=O)(=O)N1CCc3ccc(cc3C1)C2CC(=O)O (centres unmarked) [Compound 1, tert-butyl 2-(1^4-methyl-4,4-dioxido-3^1,3^2,3^3,3^4-tetrahydro-1^1H-6,9-dioxa-4-thia-3(7,2)-isoquinolina-1(5,1)-benzo[d][1,2,3]triazola-5(1,4)-benzenacycloundecaphane-2-yl)acetic acid] | > 30 µM | 100 to 1000 nM | – | – | –
15 | Cc1c2ccc3c1nnn3CCCCCN1CCC(CC1)C(=O)N1CCc3ccc(cc3C1)C2CC(=O)O (centres unmarked) [Compound 2, 2-(carboxymethyl)-1^4-methyl-4-oxo-3^1,3^2,3^3,3^4-tetrahydro-1^1H-3(7,2)-isoquinolina-1(5,1)-benzo[d][1,2,3]triazola-5(4,1)-piperidin-1-iumacyclodecaphan-5^1-ium chloride] | > 30 µM | 1000 to 10000 nM | – | – | –
16 | Cc1c2ccc3c1nnn3CCOCCN1CCC(CC1)C(=O)N1CCc3ccc(cc3C1)C2CC(=O)O (centres unmarked) [Compound 3, 2-(carboxymethyl)-1^4-methyl-4-oxo-3^1,3^2,3^3,3^4-tetrahydro-1^1H-8-oxa-3(7,2)-isoquinolina-1(5,1)-benzo[d][1,2,3]triazola-5(4,1)-piperidin-1-iumacyclodecaphan-5^1-ium chloride] | > 30 µM | 1000 to 10000 nM | – | – | –
17 | Cc1cc2cc3c1CCN(C3)C(=O)c1ccc(cc1)COCCCn1nnc3c(C)c(ccc31)C2CC(=O)O (centres unmarked) [Compound 4, 2-(1^4,3^5-dimethyl-4-oxo-3^1,3^2,3^3,3^4-tetrahydro-1^1H-7-oxa-3(7,2)-isoquinolina-1(5,1)-benzo[d][1,2,3]triazola-5(1,4)-benzenacyclodecaphane-2-yl)acetic acid] | ≤ 10 µM | ≤ 100 nM | – | – | –
18 | Cc1c2ccc3c1nnn3CCCCCN1CCN(CC1)C(=O)N1CCc3ccc(cc3C1)C2CC(=O)O (centres unmarked) [Compound 5, 2-(carboxymethyl)-1^4-methyl-4-oxo-3^1,3^2,3^3,3^4-tetrahydro-1^1H-3(7,2)-isoquinolina-1(5,1)-benzo[d][1,2,3]triazola-5(4,1)-piperazin-1-iumacyclodecaphan-5^1-ium chloride] | > 30 µM | 100 to 1000 nM | – | – | –
19 | Cc1c2ccc3c1nnn3CCCOCc1ccc(cc1)C(=O)N(C)Cc1cccc(c1)C2CC(=O)O (centres unmarked) [Compound 7, 2-(1^4,5-dimethyl-6-oxo-1^1H-9-oxa-5-aza-1(5,1)-benzo[d][1,2,3]triazola-3(1,3), 7(1,4)-dibenzenacyclododecaphane-2-yl)acetic acid] | 10 to 30 µM | ≤ 100 nM | – | – | –
20 | Cc1c2ccc3c1nnn3CCOCCN1CCN(CC1)C(=O)c1ccc3ccc(cc3c1)C2CC(=O)O (centres unmarked) [Compound 8, 2-(1^4-methyl-4-oxo-1^1H-8-oxa-1(5,1)-benzo[d][1,2,3]triazola-5(1,4)-piperazina-3(2,7)-naphthalenacyclodecaphane-2-yl)acetic acid] | > 30 µM | 1000 to 10000 nM | – | – | –
21 | Cc1c2ccc3c1nnn3CCCCOC1CCN(CC1)C(=O)N1CCc3ccc(cc3C1)C2CC(=O)O (centres unmarked) [Compound 10, 2-(1^4-methyl-4-oxo-3^1,3^2,3^3,3^4-tetrahydro-1^1H-6-oxa-3(7,2)-isoquinolina-1(5,1)-benzo[d][1,2,3]triazola-5(1,4)-piperidinacyclodecaphane-2-yl)acetic acid] | ≤ 10 µM | ≤ 100 nM | – | – | –
22 | Cc1c2ccc3c1nnn3C/C=C\COC1CCN(CC1)C(=O)N1CCc3ccc(cc3C1)C2CC(=O)O (centres unmarked) [Compound 11, (Z)-2-(1^4-methyl-4-oxo-3^1,3^2,3^3,3^4-tetrahydro-1^1H-6-oxa-3(7,2)-isoquinolina-1(5,1)-benzo[d][1,2,3]triazola-5(1,4)-piperidinacyclodecaphan-8-en-2-yl)acetic acid] | ≤ 10 µM | ≤ 100 nM | – | – | –
23 | Cc1c2ccc3c1nnn3CCCOCC1CCN(CC1)C(=O)N1CCc3ccc(cc3C1)C2CC(=O)O (centres unmarked) [Compound 12, 2-(1^4-methyl-4-oxo-3^1,3^2,3^3,3^4-tetrahydro-1^1H-7-oxa-3(7,2)-isoquinolina-1(5,1)-benzo[d][1,2,3]triazola-5(1,4)-piperidinacyclodecaphane-2-yl)acetic acid] | ≤ 10 µM | ≤ 100 nM | – | – | –
